Patent US20220226357A1, “METHODS FOR TREATING NEURODEGENERATIVE DISORDERS” (THOMAS JEFFERSON UNIVERSITY, priority 2019, published 2022)
“Also recorded” adds a separate entry of the source. Marks after values point to notes of the source that are not given here.

Columns and labels:
[1] = tested on: AAV-A53T α-synuclein rat model; test: Stereological counting of TH+ and Nissl (cresyl violet) stained neurons in the SNc; format: in vivo
Method: (§1) Institutional Animal Care and Use Committee and conducted in accordance with the National Institutes of Health Guide for the Care and Use of Laboratory Animals. Adult male Sprague-Dawley rats (Envigo), 250 to 300 g at the time of surgery, were housed three per cage with ad libitum access to food and water during a 12-hour light/dark cycle. All surgeries were performed under general anesthesia using a mixture of ketamine (100 mg/kg, i.p.) and xylazine (10 mg/kg, i.p.). Once animals were anesthetized, the head was shaved and surgically prepped with Betadine solution and alcohol before being placed in a Kopf stereotaxic frame with the incisor bar set at approximately 3.5 mm below horizontal zero to achieve a flat skull position. The skin on the top of the skull was cut along the midline and retracted. […] Following a 5 minute wait period after completion of the injection, the needle was slowly withdrawn, the skin wound was closed, and post-surgery analgesia (meloxicam 1 mg/kg) was administered. Some rats were randomly assigned to receive daily GM1 ganglioside (porcine brain derived GM1, 30 mg/kg, i.p., Qilu Pharmaceutical Co., Ltd.) or similar volume saline injections beginning 24 hours after AAV-A53T-synuclein surgery and lasting for 6 weeks (early start group). Other animals were randomly assigned to receive daily GM1 ganglioside (porcine brain derived GM1, 30 mg/kg, i.p., Qilu Pharmaceutical Co.) or similar volume saline injections beginning 3 weeks after AAV-A53T-synuclein surgery and lasting for 5 weeks (delayed start group). […] At the conclusion of the study, animals were euthanized, fresh brains were rapidly removed, and two to three striatal samples from both sides were dissected and immediately frozen for later analyses. The remainder of the brain (including the striatum beginning at the level of the decussation of the anterior commissure) was submersion fixed in 4% paraformaldehyde.
Fixed tissue blocks were immersed in 30% sucrose for cryoprotection and sectioned frozen on a sliding microtome (30 μm section thickness for striatal sections; 40 μm section thickness for SN sections). Sections through the rostro-caudal extent of the SN were collected and every sixth section from the SN was processed for tyrosine hydroxylase (TH) immunohistochemistry to be used for stereological cell counting. Three striatal sections from approximately the level of the decussation of the anterior commissure in each case were processed for α-synuclein immunohistochemistry. For immunohistochemistry, sections were washed and permeabilized with PBS containing 0.2% Triton X-100. Endogenous peroxidase activity was quenched using 3% hydrogen peroxide in PBS containing 0.2% Triton X-100. Sections were then blocked in PBS/triton X-100 containing 10% normal goat serum and 2% BSA, followed by primary antibody incubation (TH (rabbit anti-TH, 1:2,000, Pel-Freez); α-synuclein (mouse anti-α-synuclein clone 211; 1:2000, Millipore) overnight at 4° C. The following day, sections were washed in PBS and incubated in biotinylated secondary antibody (goat-anti-rabbit 1:4000 for TH; goat-anti-mouse 1:2000 for α-synuclein 1:2000, VECTOR Laboratories), followed by additional washes and incubation in avidin biotin complex (VECTASTAIN Elite ABC system, VECTOR Laboratories). The reaction product was visualized with 3,3′-diaminobenzidine (DAB) (Immpact DAB, VECTOR Laboratories). Sections were then mounted, dehydrated, cleared and coverslipped. Sections stained for visualization of TH and to be used for stereological cell counting were counterstained with cresyl violet prior to coverslipping. Stereological estimates of the numbers of TH and cresyl violet-stained neurons in the SNc on both sides of the brain were obtained using StereoInvestigator software (MBF Bioscience) and an Olympus BX-60 microscope equipped with a Ludl motorized stage. Slides were coded and analyzed blindly. […]

[2] = tested on: AAV-A53T α-synuclein rat model; test: Cylinder test of spontaneous forelimb use; format: in vivo
Method: as §1
Forelimb use during explorative activity was analyzed using the cylinder test. The test apparatus consisted of a clear Plexiglass cylinder of approximately 33 cm diameter and 50 cm height placed in a dimly lit room in front of a mirror in order to visualize limb use from all angles. Each session was videotaped for later analysis by an observer blind to the animal's experimental group. The paw contralateral to the side of the AAV-A53T-α-synuclein injection was marked prior to the start of each test session to definitively determine laterality on videotapes. The test was performed in the late afternoon prior to the onset of the dark cycle. At each test session, the animal was gently placed in the cylinder and movements were videotaped for 10 minutes. Forelimb use was assessed by scoring weight-bearing contacts on the cylinder wall with the ipsilateral, contralateral (relative to the AAV-A53T-α-synuclein-injected side), and both paws. Twenty observations of the paw placements on the cylinder wall were scored. Limb placement on the wall was scored only if it occurred after the animal returned to a resting position and reared again to touch the cylinder wall. Percent ipsilateral (ipsi) and contralateral (contra) paw touches were calculated as [(ipsi+1/2 both)/total #observations]*100 and [(contra+1/2 both)/total #observations]*100, respectively. The cylinder test was performed prior to surgery (baseline) and at 3 and 6 weeks after surgery for the immediate start GM1 groups and at 3 and 8 weeks after surgery for the delayed start GM1 groups.

[3] = tested on: differentiated SH-SY5Y cells; test: Uptake of GFP-α-Syn from conditioned medium; format: cell-based; conditions: 100 μM GM1, 24 hrs, conditioned medium of MN9D cells expressing GFP-tagged human WT α-Syn
Method: It has recently become appreciated that cell-to-cell transfer of α-Syn may be an important factor in the progression of synucelinopathies. Cell-to-cell transfer of α-Syn can occur as free α-Syn or as α-Sy-containing exosomes. Herein, a preliminary study was conducted to assess the extent to which GM1 can influence α-Syn release and/or uptake by neighboring cells. MIN9D dopaminergic cells stably expressing human WT α-Syn tagged with GFP were cultured to ˜90% confluency and shifted to serum free media for 48 hours to generate conditioned medium (CM), which was collected, spun at 1000 rpm for 10 minutes and filtered through a sterile […] filter. Normal SH-SY5Y cells (ATCC) were plated in 8 well chamber slides and differentiated in 10 μM retinoic acid for 7 days. Sterile CM or regular medium were used to replace 50% of the medium in each well. The cells were grown in the CM for 24 hours in presence or absence of 100 μM GM1, fixed in 4% paraformaldehyde for 10 minutes, and processed for enhanced visualization of GFP using GFP immunofluorescence.

[4] = AAV-A53T/Delayed GM1, injected side
[5] = AAV-A53T/Delayed GM1, non-injected side
[6] = AAV-A53T/Early GM1, injected side
[7] = AAV-A53T/Early GM1, non-injected side

GM1 ganglioside
Nissl+ Cells [1, 4]: 3335 ± 148^d
TH+ Cells [1, 4]: 2814 ± 134^c
Nissl+ Cells [1, 5]: 6113 ± 132
TH+ Cells [1, 5]: 5685 ± 143
Nissl+ Cells [1, 6]: 3557 ± 172^b
TH+ Cells [1, 6]: 3144 ± 159^a
Nissl+ Cells [1, 7]: 6074 ± 174
TH+ Cells [1, 7]: 5601 ± 135
loss of TH+ neurons compared to the contralateral side ([1]; delayed start GM1, 8 weeks): 50.6±2.1%
loss of cresyl violet-stained neurons compared to the contralateral side ([1]; delayed start GM1, 8 weeks): 45.5±2.1%
loss of TH+ neurons compared to the non-injected side ([1]; early start GM1, 6 weeks): 43.7±2.7%
loss of cresyl violet-stained neurons compared to the contralateral side ([1]; early start GM1, 6 weeks): 41.9±2.5%
percent ipsilateral forelimb use ([2]; delayed start GM1 30 mg/kg/day i.p. from week 3 for 5 weeks, week 8): 61.5±2.7%
percent ipsilateral limb use ([2]; delayed start GM1 group, baseline (prior to surgery and GM1)): 50.0±2.0%
percent ipsilateral forelimb use ([2]; delayed start GM1 group, week 3, just prior to receiving GM1): 74.9±2.8%
percent ipsilateral limb use ([2]; early start GM1 30 mg/kg/day i.p. from 24 h after AAV-A53T, 3 weeks, mean±SEM): 67.1±3.7%
percent ipsilateral limb use ([2]; early start GM1 30 mg/kg/day i.p. from 24 h after AAV-A53T, 6 weeks, mean±SEM): 56.0±2.5%
percent ipsilateral limb use ([2]; early start GM1 group, baseline (prior to surgery and GM1), mean±SEM): 50.1±1.8%
uptake of GFP-α-Syn into SH-SY5Y cells [3]: reduced levels of GFP-α-Syn; also recorded: reduced uptake of GFP-α-Syn
